Laboratory results published in US10597390B2, “Indoles for use in influenza virus infection” (Janssen Sciences Ireland UC, priority 2014, dated 2020).

What was measured:
in vitro = settings: dog, TOX MDCK CC50
[1] = system: influenza virus A/Taiwan/1/86 (H1N1); assay: organism not typed; assay type: cell-based; settings: CPE in MDCK cells, three days post-virus exposure, ATPlite

Row | SMILES | CC50 at 3 days (in vitro) [nM] | IC50 ([1]; MDCK, 72 h) [nM] | IC50 [1] [nM]
1 | O=C(N[C@@H]1CCC[C@H](Nc2nc(-c3c[nH]c4c(F)cc(F)cc34)ncc2F)C1)N1CCCC1 (racemic) [Compound 1, N-((cis)-3-((2-(5,7-difluoro-1H-indol-3-yl)-5-fluoropyrimidin-4-yl)amino)cyclohexyl)pyrrolidine-1-carboxamide] | 10200 | 3 | 
2 | CC(C)(C)C(CC(=O)O)Nc1nc(-c2c[nH]c3c(F)cc(F)cc23)ncc1F (racemic) [Compound 2] | 5200 | 11 | 
3 | Cn1cnc(C(=O)N[C@@H]2CCC[C@H](Nc3nc(-c4c[nH]c5c(F)cc(F)cc45)c(C#N)cc3F)C2)c1 (racemic) [Compound 3] | > 25000 | 5 | 
4 | N#Cc1cc(F)c(N[C@H]2CCC[C@@H](NC(=O)N3CCCC3)C2)nc1-c1c[nH]c2c(F)cc(F)cc12 (racemic) [Compound 4] | > 25000 | 4 | 
5 | CC(=O)NCc1cc(F)c(N[C@H]2CCC[C@@H](NC(=O)N3CCCC3)C2)nc1-c1c[nH]c2c(F)cc(F)cc12 (racemic) [Compound 6] | > 25000 | 50 | 
6 | O=C(N[C@@H]1CCC[C@H](Nc2nc(-c3c[nH]c4c(F)ccc(F)c34)ncc2F)C1)N1CCCC1 (racemic) [Compound 7] | > 25000 | 460 | 
7 | O=C(N[C@H]1CCC[C@@H](Nc2nc(-c3c[nH]c4c(F)cc(F)cc34)c(-c3nnc[nH]3)cc2F)C1)N1CCCC1 (racemic) [Compound 24] | > 25000 | 420 | 
8 | O=C(N[C@@H]1CCC[C@H](Nc2nc(-c3c[nH]c4c(F)cc(F)cc34)ncc2F)C1)c1ccccn1 (racemic) [Compound 90] | 10900 | 9 | 
9 | Cn1cnc(C(=O)N[C@@H]2CCC[C@H](Nc3nc(-c4c[nH]c5c(F)cc(F)cc45)ncc3F)C2)c1 (racemic) [Compound 92] | 11400 | 4 | 
10 | Cc1nc(C(=O)N[C@@H]2CCC[C@H](Nc3nc(-c4c[nH]c5c(F)cc(F)cc45)ncc3F)C2)c(C)o1 (racemic) [Compound 93] | > 25000 | 39 | 
11 | Cn1cccc1C(=O)N[C@@H]1CCC[C@H](Nc2nc(-c3c[nH]c4c(F)cc(F)cc34)ncc2F)C1 (racemic) [Compound 94] | 18400 | 5 | 
12 | O=C(N[C@@H]1CCC[C@H](Nc2nc(-c3c[nH]c4c(F)cc(F)cc34)ncc2F)C1)c1ccc(F)cn1 (racemic) [Compound 95] | > 25000 | 12 | 
13 | Cc1cc(C(=O)N[C@@H]2CCC[C@H](Nc3nc(-c4c[nH]c5c(F)cc(F)cc45)ncc3F)C2)nn1C (racemic) [Compound 96] | 10500 | 5 | 
14 | O=C(N[C@@H]1CCC[C@H](Nc2nc(-c3c[nH]c4c(F)cc(F)cc34)ncc2F)C1)c1ccno1 (racemic) [Compound 97] | > 22700 | 12 | 
15 | Cc1cc(F)c2[nH]cc(-c3ncc(F)c(N[C@H]4C5CCC(CC5)[C@@H]4C(=O)O)n3)c2c1 (racemic) [Compound 164] | 1700 | 11 | 
16 | N#Cc1cc(F)c2[nH]cc(-c3ncc(F)c(N[C@H]4CCC[C@@H](NC(=O)c5ccccn5)C4)n3)c2c1 (racemic) [Compound 173] | > 25000 | 13 | 
17 | Cn1cnc(C(=O)N[C@@H]2CCC[C@H](Nc3nc(-c4c[nH]c5c(F)cc(C#N)cc45)ncc3F)C2)c1 (racemic) [Compound 174] | > 25000 | 10 | 
18 | Cc1cc(C(=O)N[C@H]2CCC[C@@H](Nc3nc(-c4c[nH]c5c(F)cc(F)cc45)c(C(F)(F)F)cc3F)C2)nn1C (racemic) [Compound 177] | 14700 | 38 | 
19 | O=C(N[C@H]1CCC[C@@H](Nc2nc(-c3c[nH]c4c(F)cc(F)cc34)c(C(F)(F)F)cc2F)C1)c1ncn[nH]1 (racemic) [Compound 178] | 2600 | 10 | 
20 | Cc1nc(C(=O)N[C@H]2CCC[C@@H](Nc3nc(-c4c[nH]c5c(F)cc(F)cc45)c(C(F)(F)F)cc3F)C2)c(C)o1 (racemic) [Compound 179] | > 25000 | 81 | 

Row | SMILES | CC50 at 3 days (in vitro) [nM] | IC50 ([1]; MDCK, 72 h) [nM] | IC50 [1] [nM]
21 | O=C(N[C@H]1CCC[C@@H](Nc2nc(-c3c[nH]c4c(F)cc(F)cc34)c(C(F)(F)F)cc2F)C1)c1cnccn1 (racemic) [Compound 180] | > 25000 | 20 | 
22 | Cc1cc(C(=O)N[C@H]2CCC[C@@H](Nc3nc(-c4c[nH]c5c(F)cc(F)cc45)c(C(F)(F)F)cc3F)C2)on1 (racemic) [Compound 181] | 16400 | 11 | 
23 | CC(C)c1cc(C(=O)N[C@H]2CCC[C@@H](Nc3nc(-c4c[nH]c5c(F)cc(F)cc45)c(C(F)(F)F)cc3F)C2)no1 (racemic) [Compound 182] | > 25000 |  | 
24 | Cn1cnc(C(=O)N[C@H]2CCC[C@@H](Nc3nc(-c4c[nH]c5c(F)cc(Cl)cc45)c(C#N)cc3F)C2)c1 (racemic) [Compound 189] | 7300 | 4 | 
25 | Cc1cc(F)c2[nH]cc(-c3ncc(F)c(N[C@H]4CCC[C@@H](NC(=O)c5cn(C)cn5)C4)n3)c2c1 (racemic) [Compound 190] | 13100 | 11 | 
26 | N#Cc1cc(F)c(N[C@H]2CCC[C@@H](NC(=O)c3ccccn3)C2)nc1-c1c[nH]c2c(F)cc(F)cc12 (racemic) [Compound 208] | > 25000 | 6 | 
27 | Cc1cc(C(=O)N[C@@H]2CCC[C@H](Nc3nc(-c4c[nH]c5c(F)cc(F)cc45)c(C#N)cc3F)C2)nn1C (racemic) [Compound 210] | > 25000 |  | 12
28 | O=C(O)[C@H]1[C@@H]2CC[C@@H](C2)[C@@H]1Nc1nc(-c2c[nH]c3c(F)cc(F)cc23)ncc1F (racemic) [Compound 217, (+/−)-(2-exo, 3-endo)-3-((2-(5,7-difluoro-1H-indol-3-yl)-5-fluoropyrimidin-4-yl)amino)bicyclo[2.2.1]heptane-2-carboxylic Acid] | 5000 | 22 | 
29 | CC[C@]1(C(=O)O)CCCC[C@@H]1Nc1nc(-c2c[nH]c3c(F)cc(F)cc23)ncc1F (racemic) [Compound 252] | 8200 | 350 | 
30 | CC(=O)NCc1cc(F)c(N[C@H]2CCC[C@@H](NC(=O)c3cn(C)cn3)C2)nc1-c1c[nH]c2c(F)cc(F)cc12 (racemic) [Compound 258] | > 25000 | 160 | 
31 | O=C(N[C@@H]1CCC[C@H](Nc2nc(-c3c[nH]c4c(F)cc(C(F)(F)F)cc34)ncc2F)C1)c1ccccn1 (racemic) [Compound 263] | 3900 | 15 | 
32 | C[C@@H]1CC[C@H](C)N1C(=O)N[C@H]1CCC[C@@H](Nc2nc(-c3c[nH]c4c(F)cc(F)cc34)ncc2F)C1 (relative stereo) [Compound 13, N-((1R*,3S*)-3-((2-(5,7-difluoro-1H-indol-3-yl)-5-fluoropyrimidin-4-yl)-amino)cyclohexyl)-cis-2,5-dimethylpyrrolidine-1-carboxamide] | 10700 | 44 | 
33 | C[C@H]1CC[C@H](C)N1C(=O)N[C@H]1CCC[C@@H](Nc2nc(-c3c[nH]c4c(F)cc(F)cc34)ncc2F)C1 (relative stereo) [Compound 14, N-((1R*3S*)-3-((2-(5,7-difluoro-1H-indol-3-yl)-5-fluoropyrimidin-4-yl)amino)cyclohexyl)-trans-2,5-dimethylpyrrolidine-1-carboxamide] | 10400 | 140 | 
34 | O=C(NC1CCOC1)N[C@@H]1CCC[C@H](Nc2nc(-c3c[nH]c4c(F)cc(F)cc34)ncc2F)C1 (relative stereo) [Compound 15, 1-((1R*,3S*)-3-((2-(5,7-difluoro-1H-indol-3-yl)-5-fluoropyrimidin-4-yl)-amino)cyclohexyl)-3-(tetrahydrofuran-3-yl)urea] | > 25000 | 42 | 
35 | Cn1cnc(C(=O)N[C@H]2CCC[C@@H](Nc3nc(-c4c[nH]c5c(F)cc(F)cc45)c(C(F)(F)F)cc3F)C2)c1 (relative stereo) [Compound 16, N-((1S*,3R*)-3-((6-(5,7-difluoro-1H-indol-3-yl)-3-fluoro-5-(trifluoromethyl)pyridin-2-yl)amino)cyclohexyl)-1-methyl-1H-imidazole-4-carboxamide] | 3900 | 22 | 
36 | Cn1nc(C(=O)O)cc1C(=O)N[C@@H]1CCC[C@H](Nc2nc(-c3c[nH]c4c(F)cc(F)cc34)ncc2F)C1 (relative stereo) [Compound 159, 5-(((1R*,3S*)-3-((2-(5,7-difluoro-1H-indol-3-yl)-5-fluoropyrimidin-4-yl)amino)cyclohexyl)carbamoyl)-1-methyl-1H-pyrazole-3-carboxylic acid] | > 25000 | 310 | 
37 | Cn1nc(NS(C)(=O)=O)cc1C(=O)N[C@@H]1CCC[C@H](Nc2nc(-c3c[nH]c4c(F)cc(F)cc34)ncc2F)C1 (relative stereo) [Compound 226, N-((1R*,3S*)-3-((2-(5,7-difluoro-1H-indol-3-yl)-5-fluoropyrimidin-4-yl)-amino)cyclohexyl)-1-methyl-3-(methylsulfonamido)-1H-pyrazole-5-carboxamide] | 17500 | 3 | 
38 | Cn1nc(NS(N)(=O)=O)cc1C(=O)N[C@@H]1CCC[C@H](Nc2nc(-c3c[nH]c4c(F)cc(F)cc34)ncc2F)C1 (relative stereo) [Compound 227, N-((1R*,3S*)-3-((2-(5,7-difluoro-1H-indol-3-yl)-5-fluoropyrimidin-4-yl)-amino)cyclohexyl)-1-methyl-3-(sulfamoylamino)-1H-pyrazole-5-carboxamide] | > 25000 | 15 | 
39 | CC(=O)Nc1cc(C(=O)N[C@@H]2CCC[C@H](Nc3nc(-c4c[nH]c5c(F)cc(F)cc45)ncc3F)C2)n(C)n1 (relative stereo) [Compound 228, 3-acetamido-N-((1R*,3S*)-3-((2-(5,7-difluoro-1H-indol-3-yl)-5-fluoropyrimidin-4-yl)amino)cyclohexyl)-1-methyl-1H-pyrazole-5-carboxamide] | > 25000 | 9 | 
